Results reported in patent US20260184669A1, “LIPID COMPOUND AND COMPOSITION FOR DELIVERY OF ACTIVE SUBSTANCE” (KOREA RESEARCH INSTIUTE OF BIOSCIENCE AND BIOTECHNOLOGY, priority 2022, published 2026).

What was measured:
[1] = test system: IL-6 mRNA level in HEK-293T cells
[2] = mRNA encapsulation efficiency (Quant-IT RiboGreen RNA assay); assay type: physicochemical; conditions: mRNA encapsulation efficiency of mRNA-LNP made with the ionizable lipid; average of two measurements
Summary of the method: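 LNP samples read with RiboGreen reagent in TE buffer with or without 2% Triton X-100 (37 °C, 10 min) to release encapsulated mRNA. Fluorescence at λex 480/λem 520 nm; EE % calculated from the two readings, averaged over two independent measurements.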

[3] = test system: CCL3 mRNA level in HEK-293T cells
female C57BL/6 mice = assay: Protein expression efficiency of fLuc mRNA-LNPs after intramuscular injection (IVIS whole-body luminescence); assay type: in vivo; conditions: fLuc mRNA-LNP, intramuscular injection, luminescence at injection site, mice
Summary of the method: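 Female C57BL/6 mice (6-10 weeks, n≥4) got intramuscular fLuc mRNA-LNPs at 0.1-0.5 mg/kg mRNA. Injection-site luminescence was imaged under isoflurane at 1-72 h, 10 min after i.p. D-luciferin (200 μL, 15 mg/mL). Expression at 3 h was taken relative to MC3 or SM-102 LNPs.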

[4] = Apparent pKa of mRNA-LNP by TNS binding assay; assay type: physicochemical; conditions: apparent pKa of mRNA-LNP made with the ionizable lipid
Protocol: The apparent pKa of the mRNA-LNPs prepared according to Example 27 was determined by analysis using 6-(p-toluidino)-2-naphthalenesulfonic acid sodium salt (TNS; Sigma-Aldrich, USA).
However, as the pH decreases, the proportion of positively charged ionizable lipids increases, allowing electrostatic interactions with TNS. […] When the pH of the solution increases and the ionizable lipids become neutralized, TNS can no longer engage in electrostatic interactions. Consequently, TNS loses its lipophilic character, exits the hydrophobic domain, and its fluorescence is quenched. Based on this principle, the pKa of LNPs can be measured by plotting the change in TNS fluorescence intensity in response to variations in the surrounding pH as an S-shaped curve, and calculating the […] of the inflection point. […]
Specifically, a master buffer was prepared containing 10 mM sodium phosphate, 10 mM sodium borate, 10 mM sodium citrate, and 150 mM sodium chloride (NaCl). […] After gently mixing the contents of each well, the fluorescence intensity was measured using a multiplate reader (Cary Eclipse, Agilent Technologies, USA) at an excitation wavelength of λex 330 nm and an emission wavelength of λem 435 nm.

[5] = test system: CCL2 mRNA level in HEK-293T cells
[6] = Size, polydispersity index and surface charge of mRNA-LNP (Malvern Zetasizer Nano ZS90); assay type: physicochemical
Summary of the method: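 Dynamic/electrophoretic light scattering of LNPs diluted in PBS to a final mRNA concentration of 1 μg/mL. Readouts were particle size, PDI and surface charge.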

[7] = test system: IL-1β mRNA level in HEK-293T cells

CCCCC/C=C\C/C=C\CCCCCCCCC(CCCCCCCC/C=C\C/C=C\CCCCC)OC(=O)CCCN(C)C [MC3, DLin-MC3-DMA, reference compound]
IL-6 Average [1]: 1.27 | EE (%) [2]: 95% | CCL3 Average [3]: 1.86 | Total flux 1 hour (female C57BL/6 mice; 1 hour after administration): 1.20E+06 | Total flux 3 hours (female C57BL/6 mice; 3 hours after administration): 1.24E+07 | Total flux 6 hours (female C57BL/6 mice; 6 hours after administration): 1.78E+07 | Total flux 48 hours (female C57BL/6 mice; 48 hours after administration): 8.41E+05 | Total flux 72 hours (female C57BL/6 mice; 72 hours after administration): 3.89E+05 | Total flux (female C57BL/6 mice; after administration): 1.03E+06 | PKa [4]: 6.14 | CCL2 Average [5]: 1.15 | PDI ([6]; mRNA-LNP made with the ionizable lipid at its optimal formulation (Table 2)): 0.174 | size (nm) Number ([6]; mRNA-LNP made with the ionizable lipid at its optimal formulation (Table 2), diluted with PBS to 1 μg/mL mRNA): 93 nm | Zeta (mV) ([6]; surface charge of mRNA-LNP made with the ionizable lipid at its optimal formulation (Table 2)): −2.65 mV | IL-1β Average [7]: 1.46
